Data on eight molecules can be found in patent US20220160779A1, “COMPOSITION FOR PROMOTING CARTILAGE TISSUE REGENERATION” (National University Corporation Tokyo Medical and Dental …, priority 2019, published 2022).

The subject of data set [1] is synovial MSCs. Kind of data set: Proliferation assay of synovial MSCs with recombinant protein (MTT assay). The following applies: for proliferation activation of MSCs (MTT assay): recombinant protein added to normal growth medium (10% FBS) up to 100 times the ED50, FIG. 3C; for effect of inhibitor on pro-proliferative activity of Activin A / cell count (MTT assay): 0.5% FBS + rh Activin A + inhibitor, FIG. 5E. It is filed as cell-based, human. The method, then:
Primary human synovial cells were isolated from the synovial tissues obtained from patients who underwent total knee arthroplasty (TKA), as described in Sekiya I. et al, Clin Orthop Relat Res, 2015, 473(7), pp. 2316 to 2326. That is, first, 0.5 to 1 mg of synovium obtained by incising the suprapatellar bursa was subjected to collagenase D treatment (Sigma, MO, USA, 3 hours at 37° C.) to disperse nucleated cells. Debris was removed by passing the cell dispersion through a 70 μm nylon mesh. Nucleated cells were seeded in a 15 cm dish at 5.7×10^2 cells/cm^2 and maintained and cultured in MEM-alpha medium supplemented with 10% FBS and antibiotics (Gibco, MA, USA) for 14 days. The cells were then separated from the dish in TripLE solution (Gibco) and seeded twice more in a new dish to obtain a sufficient cell count to be used in the experiments. Note that in all experiments, cells within 6 passages were used.
To evaluate the pro-proliferative activity of recombinant proteins (IL6, IL8, IL10, and Activin A), MTT assays were performed (see FIGS. 3C and 5C-E). Synovial MSCs were seeded to 1×10^3 cells/well in 96-well plates and cultured in 0.2 mL of normal growth medium 1 day before being subjected to recombinant protein treatment. On the following day, the medium was replaced with a fresh one (normal growth medium or medium with a reduced FBS concentration of 0.5% and recombinant protein added (10 times the concentration of ED50 or 100 times the concentration of ED50)). MTT assays were performed at days 0, 1, 3, 5, and 7 according to the method described in Denizot F. et al., J Immunol Methods, 1986, 89(2), pp. 271 to 277.
In addition, the present inventors tried to clarify the molecular mechanism of MSC proliferative activity by Activin A. It has been reported that the ERK and PI3K signal transduction pathways are activated for MSC proliferation (see Uomizu, M. et al, J Med Dent Sci., 2018, vol. 65, pp. 73 to 82). With the above in mind, Activin A (rh Activin A) was applied to synovial MSCs in the presence of PI3K-PKB/Akt and Erk1/Erk2, a specific inhibitor for each of these signal transduction pathways, and the cell count was measured by MTT assay.

The subject of data set [2] is rat model of total articular cartilage loss. Kind of data set: Full thickness articular cartilage defect model. In kind it is in vivo. The following applies: 4 weeks after the defect, FIG. 8. On the procedure: Next, in order to verify the regeneration of damaged articular cartilage and the suppression of degenerative degeneration, a model of full thickness articular cartilage defect was prepared to examine the effects of rh Activin A administration. Specifically, a 1.4 mmφ total articular cartilage loss was prepared in the femoral intercondylar region using an airtome, and 180 ng of Activin A (rh Activin A) was injected intra-articularly 1 week later.

For another data set, the system named is C57BL/6J mice. The experiment in a line: Medial meniscus anterior 1/2 resection model. In kind it is in vivo, mouse. The following applies: intra-articular on day 7; 10 days after resection; FIG. 7A. The text has this:
Twenty male C57BL/6J mice (8 weeks old, weight: about 25 g) were used for this study (5 mice in each group. ORIENTAL YEAST Co., Ltd. Tokyo, Japan). After anesthesia by isoflurane inhalation, a straight incision was made in the left anterior knee, and the anterior central side of the joint capsule was cut. The patellar tendon was then dislocated laterally to expose the anterior corner of the medial meniscus (see Hiyama K. et al, J Orthop Res., 2017, 35(9), pp. 1958 to 1965). The anterior corner of the meniscus was cut and dislocated anteriorly using forceps. The medial meniscus was cut perpendicularly at the medial collateral ligament, and the anterior portion of the medial meniscus was resected in a microscopic operation using a surgical microscope. The skin was closed in layers with non-absorbable sutures. Note that the right knee was subjected to sham surgery. In addition, the mice were kept under a 12-hour light/dark cycle with free movement, free feeding, and drinking water.
Recombinant human Activin A (42 ng/6 μL in PBS) and/or rh PDGF-AA (174 ng/6 μL in PBS) was injected intra-articularly on postoperative day 7 (see Hoshino T. et al., BMC Musculoskelet Disord., 2018, 19(1): 291). […]
Tissue samples were fixed in 4% paraformaldehyde for 3 to 4 days and subjected to decalcification in 20% ethylenediaminetetraacetic acid (EDTA) solution for 21 days. Then, they were embedded in paraffin wax. The specimens were then cut to a 5 μm thickness in the sagittal plane and stained with safranin O/Fast Green or hematoxylin/eosin (H&E) to histologically evaluate meniscus regeneration.
A modified Pauli's score system was used to histologically quantify meniscus regeneration (see Hiyama K. et al, J Orthop Res. 2017, 35(9), pp. 1958 to 1965). Histological evaluation was performed by two investigators in a blind manner.
Type I and II collagen immunostaining was performed as described in Tsuji K. et al, Cell Transplant., 2017, 26(6), pp. 1089 to 1102. That is, sections were subjected to deparaffinization with xylene (Wako Pure Chemical Industries, Tokyo, Japan), rehydrated stepwise with alcohol, and saturated with phosphate buffered saline (PBS). For type II collagen staining, the samples were pretreated with 50 mM Tris-HCl buffer (Wako Pure Chemical Industries) containing 0.4 mg/ml Proteinase K (Dako, Agilent Technologies, Santa Clara, Calif., USA) for 10 min. For type I collagen staining, no digestion with Proteinase K was performed.
Next, the cells were treated with methanol containing 0.3% hydrogen peroxide for 30 minutes to suppress the activity of endogenous peroxidase. As primary antibodies, anti-type I collagen antibody (1:200 dilution; Abcam cat. #ab34712, Cambridge, UK) or anti-type II collagen antibody (1:1000 dilution; Abcam […], Cambridge, UK) were added to the sections and incubated at 4° C. overnight. Then, the sections were rinsed with 0.1% PBS-Triton X-100 (MP Biomedicals Inc., Solon, Ohio, USA) and incubated with secondary antibodies diluted 1:200 [Biotinylated goat-derived anti-rabbit immunoglobulin G (IgG), Vector Laboratories, Burlingame, Calif., USA]. Then, the sections were rinsed, the signals were visualized with Vectastain ABC Reagent (Vector Laboratories), and diaminobenzidine staining (DAB, Vector Laboratories) was applied. In addition, the sections were contrast stained with hematoxylin (Muto Pure Chemicals, Tokyo, Japan).

The subject of data set [3] is synovial MSCs. The experiment in a line: In-vitro differentiation assay of MSCs (cartilage, bone, adipocytes). In kind it is cell-based, human. The settings on record: added to chondrogenic differentiation medium, pellet culture 2 weeks; FIG. 6C. The method, then:
In-vitro differentiation assays were performed according to the method described in Colter D C. et al, Proc Natl Acad Sci USA, 2001, 98, pp. 7841 to 7845.
To form chondrogenic spheroids, 2.5×10^5 cells were transferred into 15 mL polypropylene tubes (BD Biosciences) and subjected to centrifugation at 450×g for 10 minutes. Then, the cell pellets were cultured in chondrogenic medium containing 1000 ng/mL rhBMP-2 (Infuse Bone Graft; Medtronic, TN, USA), 10 ng/mL […], and 100 nM dexamethasone (Sigma-Aldrich, MO, USA) for 14 days.
For calcification, cells were cultured in normal growth medium supplemented with 1 nM dexamethasone, 20 mM β-glycerophosphate, and 50 μg/mL ascorbic acid-2-phosphate (Sigma-Aldrich) for 21 days. Calcified nodule formation was visualized by alizarin red staining (Sigma-Aldrich).
For adipogenesis, the cells were cultured for 21 days in MEM-alpha supplemented with 10% FBS, 100 nM dexamethasone (Sigma-Aldrich), 0.5 mM IBMX (isobutyl-1-methylxanthine; Sigma-Aldrich), and 50 μM indomethacin (Wako, Tokyo, Japan). The adipogenic cultures were immobilized and stained with Oil Red O solution (Sigma-Aldrich).

In data set [4] the test system is rat meniscus damage model. The following applies: intra-articular administration; cited from earlier work.

In the case of IL6: recombinant human IL6 protein, the “proliferation activation of MSCs (MTT assay)” value (“proliferation activation” below) in the data set on synovial MSCs [1] is recorded as “no proliferation activation of MSCs was observed”.
Turning to `O=c1[nH]c2ccccc2n1C1CCN(Cc2ccc(-c3nc4cc5[nH]cnc5cc4nc3-c3ccccc3)cc2)CC1` [Akt1/2, reference compound], the “effect of inhibitor on pro-proliferative activity of Activin A / cell count (MTT assay)” value in the data set with synovial MSCs [1] is “completely eliminated”.
Same read-out and setting: under `COc1cccc(-c2cc(=O)c3ccccc3o2)c1N` [PD98059, reference compound] stands “further reduced”.
With PDGF, the “chondrogenic differentiation of the formed tissue” value in data set [2] is recorded as “no significant promotion effect”. Also, the “formation of fibrocartilage-like tissue in the articular cartilage defect site” value in data set [2] (intra-articular 1 week after defect (rh Activin A 180 ng/knee, rrPDGF-AA 900 ng/knee), vs PBS) was “promote the formation of fibrocartilage-like tissue”. For the same molecule, the “vascular invasion in the regenerated region” value in the data set with C57BL/6J mice is “observed”. Moreover, the “formation of chondrocyte aggregates (wet weight)” value in the data set with synovial MSCs [3] is reported as “effect of promoting the formation of chondrocyte aggregates”.
Take IL8: recombinant human IL8 protein: the “proliferation activation” value in the data set with synovial MSCs [1] was “no proliferation activation of MSCs was observed”.
On to `COc1ccc(-c2ccc3c(N4CCOCC4)nc(N4C[C@@H](C)O[C@@H](C)C4)nc3n2)cc1CO` [KU0063794, reference compound], for which the “effect of inhibitor on pro-proliferative activity of Activin A / cell count (MTT assay)” value in the data set on synovial MSCs [1] is recorded as “completely eliminated”.

B1: FGF18: FGF18 given by intra-articular administration (protein, UniProt O76093 28-207, looked up)
Fibroblast growth factor 18: EENVDFRIHVENQTRARDDVSRKQLRLYQLYSRTSGKHIQVLGRRISARGEDGDKYAQLLVETDTFGSQVRIKGKETEFYLCMNRKGKLVGKPDGTSKECVFIEKVLENNYTALMSAKYSGWYVGFTKKGRPRKGPKTRENQQDVHFMKRYPKGQPELQKPFKYTTVTKRSRRIRPTHPA
Take B1: in data set [4], the “articular cartilage degeneration and cartilage thickness at the tibial plateau” value is “suppress articular cartilage degeneration and increase cartilage thickness at the tibial plateau”.

B2: IL10: recombinant IL10 protein (protein, UniProt P22301 19-178, looked up)
Interleukin-10: SPGQGTQSENSCTHFPGNLPNMLRDLRDAFSRVKTFFQMKDQLDNLLLKESLLEDFKGYLGCQALSEMIQFYLEEVMPQAENQDPDIKAHVNSLGENLKTLRLRLRRCHRFLPCENKSKAVEQVKNAFNKLQEKGIYKAMSEFDIFINYIEAYMTMKIRN
Consider B2, for which, in the data set with synovial MSCs [1], the “proliferation activation” value is reported as “no proliferation activation of MSCs was observed”.
